From patent publication US20090012766A1, “Event Sequencer” (NATIONAL INSTITUTE OF ADVANCED INDUSTRIAL SCIENCE AND …, priority 2004, published 2009) come the findings set out here.

Test [1] deals with cells resistant or sensitive to the anticancer agent. Briefly: Time-lapse profiles of cells exposed to an anticancer agent. Type of test: cell-based. The conditions noted are these: 1 μM, 5 μM, 10 μM and the like. As to the method:
In this example, cisplatin was used as an exemplary anticancer agent and mixed into medium contacting cells. The concentration of the anticancer agent was selected as appropriate, such as 1 μM, 5 μM, 10 μM, and the like, to observe the reaction of the cells. Cisplatin was applied to cells resistant or sensitive to the anticancer agent. Time-lapse observation was conducted to produce profiles as in the above-described examples.

The subject of a further test is Mesenchymal Stem Cells. Briefly: Solid phase transfection at varied fibronectin concentration on PLL, APS and uncoated slides (FIG. 7). In kind it is cell-based, human. As to the method: (§1) The final concentration of DNA was adjusted to 1 μg/μL. An actin-like acting substance was stored as a stock having a concentration of 10 μg/μL, in ddH2O. All dilutions were made using PBS, ddH2O, or Dulbecco's MEM. A series of dilutions, for example, 0.2 μg/μL, 0.27 μg/μL, 0.4 μg/μL, 0.53 μg/μL, 0.6 μg/μL, 0.8 μg/μL, 1.0 μg/μL, 1.07 μg/μL, 1.33 μg/μL, and the like, were formulated.
(§2) Transfection reagents and DNA were mixed to form a DNA-transfection reagent complex. Formation of the complex requires a certain period of time. Therefore, the mixture was spotted onto a solid phase support (e.g., a poly-L-lysine slide) using an arrayer. In Example 2, as a solid phase support, an APS slide, a MAS slide, and an uncoated slide were used, as well as a poly-L-lysine slide. These slides are available from Matsunami Glass (Kishiwada, Japan), or the like.
The growing cells were adjusted to a concentration of 10^7 cells/25 mL. The cells were plated on the slide in a 100×100×15 mm squared Petri dish or a 100 mm (radius)×15 mm circular dish. Transfection was conducted for about 40 hours. This period of time corresponded to about 2 cell cycles. The slide was treated for immunofluorescence.
(§3) To quantify transfection efficiency, the present inventors use a DNA microarray scanner (GeneTAC UC4×4, Genomic Solutions Inc., MI). Total fluorescence intensity (arbitrary unit) was measured, and thereafter, fluorescence intensity per unit surface area was calculated.
In FIG. 7, slides coated with PLL (poly-L-lysine), APS and uncoated slides are shown.

The next test has as its system Human Mesenchymal Cell. Briefly: Cell adhesion profile, actin filaments and nuclear surface area with or without fibronectin (FIGS. 8-10). Type of test: cell-based. The settings on record: presence of fibronectin.
The subject of the next test is HEK293 cells. Briefly: Solid phase transfection with actin-like acting substances, gelatin as control (FIG. 1). In kind it is cell-based, human. As to the method: as §1
In Example 2, the following 5 cells were used to confirm an effect: human mesenchymal stem cell (hMSCs, PT-2501, Cambrex BioScience Walkersville, Inc., MD); human embryonic renal cell (HEK293, RCB1637, RIKEN Cell Bank, JPN); NIH3T3-3 cell (RCB0150, RIKEN Cell Bank, JPN); HeLa cell (RCB0007, RIKEN Cell Bank, JPN); and HepG2(RCB1648, RIKEN Cell Bank, JPN). These cells were cultured in DMEM/10% IFS containing L-glutamine and penicillin/streptomycin.
as §2
Although the actin-like acting substance might be used during complex formation, it was also used immediately before spotting in the present Example.
300 μL of DNA concentrated buffer (EC buffer)+16 μL of an enhancer were mixed in an Eppendorf tube. The mixture was mixed with a Vortex, followed by incubation for 5 minutes. […]
Gene introduction was evaluated by detection using, for example, immunofluorescence, fluorescence microscope examination, laser scanning, radioactive labels, and sensitive films, or emulsion.
as §3

Where only a bound is given, the exact number is not on record here.

`N.N.[Cl][Pt][Cl]` [cisplatin]: the time-lapse profiles entry in test [1] is “varied depending on the difference in cisplatin concentration and resistance/sensitivity”.
As for fibronectin, the “fibronectin concentration at which the effect was further increased” value in the test with Mesenchymal Stem Cells (APS slides) is greater than 1.07 µg/µL. Also, the “fibronectin concentration at which transfection efficiency reached a plateau” value in the test with Mesenchymal Stem Cells (PLL coating and absence of coating) is “more than 0.53 μg/μL”. In addition, the “transfection efficiency as a function of fibronectin concentration” value in the test on Mesenchymal Stem Cells (fibronectin 0 to 1.33 μg/μL, PLL, APS, uncoated slides) was “increased with an increase in fibronectin concentration”. For the same compound, the “surface area of the nucleus” value in the test on Human Mesenchymal Cell is given as “significantly increased”. For the same compound, the “extension of adherent cells” value in the test on Human Mesenchymal Cell (initial 3 hours of culture) is “full extension of cells”. Further, the “transfection in the system using the actin-like acting substance” value (“transfection in the system” below) with HEK293 cells is given as “transfection took place to a significant level”.
For the compound gelatin [reference compound], the “transfection in the system” value with HEK293 cells is listed as “transfection was not very successful”.
Take laminin: the “transfection in the system” value with HEK293 cells is “transfection took place to a significant level”.
